Results from the NIST ThermoML archive (doi:10.1016/j.jct.2016.09.040).
Numbers after ± are expanded uncertainties.

Assays:
[1] = mn = molality of the nth substance listed, in mol/kg; conditions: 75 kPa, Liquid; for viscosity: Capillary tube (Ostwald / Ubbelohde) method; for mass density: Vibrating tube method; for speed of sound: Frequency=3 MHz, Sing-around technique in a fixed-path interferometer
[2] = 75 kPa, Liquid; for viscosity: Capillary tube (Ostwald / Ubbelohde) method

O [water] + CCC(N)C(=O)O
[1], m2 = 0
Conditions | mass density [kg/m3] | speed of sound [m/s] | viscosity [mPa·s]
293.15 K | – | – | 1.003 ± 0.031
298.15 K | – | – | 0.89 ± 0.03
303.15 K | – | – | 0.798 ± 0.03
308.15 K | 994.063 ± 0.6 | – | 0.72 ± 0.03
313.15 K | – | 1529 ± 4.1 | 0.653 ± 0.03

O [water]
[2]
Conditions | viscosity [mPa·s]
293.15 K | 1.003 ± 0.031
298.15 K | 0.89 ± 0.03
303.15 K | 0.798 ± 0.03
308.15 K | 0.72 ± 0.03
313.15 K | 0.653 ± 0.03

Conditions | speed of sound [m/s]
[2], 313.15 K, Frequency=3 MHz, Sing-around technique in a fixed-path interferometer | 1529 ± 4.1

O [water] + [Cl-].[Na+]
[1], m2 = 0
Conditions | mass density [kg/m3] | speed of sound [m/s] | viscosity [mPa·s]
293.15 K | – | – | 1.003 ± 0.031
298.15 K | – | – | 0.89 ± 0.03
303.15 K | – | – | 0.798 ± 0.03
308.15 K | 994.063 ± 0.6 | – | 0.72 ± 0.03
313.15 K | – | 1529 ± 4.1 | 0.653 ± 0.03

[Cl-].[Na+] [sodium chloride] + O
[1]
Conditions | mass density [kg/m3] | speed of sound [m/s] | viscosity [mPa·s]
293.15 K, m1 = 0.1502 | 1004.43 ± 0.6 | 1492.5 ± 4.1 | 1.011 ± 0.031
293.15 K, m1 = 0.3004 | 1010.4 ± 0.6 | 1502 ± 4.1 | 1.018 ± 0.031
293.15 K, m1 = 0.5002 | 1018.11 ± 0.6 | 1514.4 ± 4.1 | 1.034 ± 0.031
293.15 K, m1 = 0.7001 | 1026.19 ± 0.6 | 1526.9 ± 4.1 | 1.059 ± 0.031
298.15 K, m1 = 0.1502 | 1003.21 ± 0.6 | 1506.2 ± 4.1 | 0.891 ± 0.03
298.15 K, m1 = 0.3004 | 1008.89 ± 0.6 | 1515.3 ± 4.1 | 0.908 ± 0.03
298.15 K, m1 = 0.5002 | – | 1527.3 ± 4.1 | 0.933 ± 0.03
298.15 K, m1 = 0.7001 | 1024.85 ± 0.6 | 1539.2 ± 4.1 | 0.95 ± 0.031
303.15 K, m1 = 0.1502 | 1001.74 ± 0.6 | 1518.1 ± 4.1 | 0.791 ± 0.03
303.15 K, m1 = 0.3004 | 1007.39 ± 0.6 | 1527 ± 4.1 | 0.814 ± 0.03
303.15 K, m1 = 0.5002 | 1015.58 ± 0.6 | 1538.6 ± 4.1 | 0.835 ± 0.03
303.15 K, m1 = 0.7001 | 1023.12 ± 0.6 | 1550.2 ± 4.1 | 0.852 ± 0.03
308.15 K, m1 = 0.1502 | 1000.1 ± 0.6 | – | 0.712 ± 0.03
308.15 K, m1 = 0.3004 | 1005.86 ± 0.6 | 1537.1 ± 4.1 | 0.738 ± 0.03
308.15 K, m1 = 0.5002 | – | 1548.3 ± 4.1 | 0.755 ± 0.03
308.15 K, m1 = 0.7001 | 1021.53 ± 0.6 | 1559.5 ± 4.1 | 0.768 ± 0.03
313.15 K, m1 = 0.1502 | 998.234 ± 0.6 | 1537.6 ± 4.1 | 0.645 ± 0.03
313.15 K, m1 = 0.3004 | 1004.13 ± 0.6 | 1545.7 ± 4.1 | 0.665 ± 0.03
313.15 K, m1 = 0.5002 | 1011.76 ± 0.6 | 1556.5 ± 4.1 | 0.687 ± 0.03
313.15 K, m1 = 0.7001 | – | 1567.3 ± 4.1 | 0.701 ± 0.03
